Columns and labels:
human PDE10A full length = target: T1, human PDE10A full length (Homo sapiens, UniProt Q9Y233); assay: PDE10A Scintillation Proximity Assay (SPA), human PDE10A full length assay; type: biochemical; conditions: 50 nM cGMP + 50 nM [3H]-cGMP, 20 minutes at room temperature, read-out: PDE10A inhibition IC50
T1 construct: purchased Enzo Life Science, Lausen, Switzerland SE-534
Procedure, shortened: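 IC50 values come from radioactive counts across a range of inhibitor concentrations, using YSi-SPA beads in zinc sulphate as stop reagent. Full-length enzyme hydrolysed 50 nM cGMP with 50 nM [3H]-cGMP for 20 min at room temperature in pH 7.5 HEPES buffer containing 10 mM MgCl2 and 0.05 mg/ml BSA.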

T1 sequence (Q9Y233 1-779 isoform Q9Y233-1): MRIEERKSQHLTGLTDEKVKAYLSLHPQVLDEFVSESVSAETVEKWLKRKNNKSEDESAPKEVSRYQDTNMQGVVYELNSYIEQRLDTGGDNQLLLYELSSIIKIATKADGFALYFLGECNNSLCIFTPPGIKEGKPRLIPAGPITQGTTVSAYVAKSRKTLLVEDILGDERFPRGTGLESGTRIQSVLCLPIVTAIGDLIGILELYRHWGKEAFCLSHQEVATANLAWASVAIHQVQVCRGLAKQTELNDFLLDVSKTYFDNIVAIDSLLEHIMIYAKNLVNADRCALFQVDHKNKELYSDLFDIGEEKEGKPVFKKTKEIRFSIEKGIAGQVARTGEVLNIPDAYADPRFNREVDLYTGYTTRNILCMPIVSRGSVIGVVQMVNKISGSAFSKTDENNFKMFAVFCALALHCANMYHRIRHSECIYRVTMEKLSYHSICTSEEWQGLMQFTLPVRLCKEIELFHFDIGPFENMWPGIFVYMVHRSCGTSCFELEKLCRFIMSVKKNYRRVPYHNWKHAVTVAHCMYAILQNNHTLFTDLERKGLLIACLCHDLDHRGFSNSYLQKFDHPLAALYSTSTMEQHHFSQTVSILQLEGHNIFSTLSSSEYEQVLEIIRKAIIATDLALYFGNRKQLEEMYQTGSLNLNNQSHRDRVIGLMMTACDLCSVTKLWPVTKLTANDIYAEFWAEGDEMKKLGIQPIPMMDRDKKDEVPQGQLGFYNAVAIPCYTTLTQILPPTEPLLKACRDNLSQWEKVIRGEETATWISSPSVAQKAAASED

| SMILES | melting point [°C] | IC50 (human PDE10A full length) [nM] |
| --- | --- | --- |
| Cn1ncc(C(=O)N[C@H]2CCOC2)c1C(=O)Nc1ccn2nc(-c3ccccc3)nc2c1 [Example 14, (S)-1-Methyl-N5-(2-phenyl-[1,2,4]triazolo[1,5-a]pyridin-7-yl)-N4-(tetrahydrofuran-3-yl)-1H-pyrazole-4,5-dicarboxamide] | > 250 | 12.4 |
| Cn1ncc(C(=O)N[C@@H]2CCOC2)c1C(=O)Nc1ccn2nc(-c3ccccc3)nc2c1 [Example 15, (R)-1-Methyl-N5-(2-phenyl-[1,2,4]triazolo[1,5-a]pyridin-7-yl)-N4-(tetrahydrofuran-3-yl)-1H-pyrazole-4,5-dicarboxamide] | > 250 | 4.85 |
| Cn1ncc(C(=O)NC2COC2)c1C(=O)Nc1ccn2nc(-c3ccccc3)nc2c1 [Example 17, 1-Methyl-N4-(oxetan-3-yl)-N5-(2-phenyl-[1,2,4]triazolo[1,5-a]pyridin-7-yl)-1H-pyrazole-4,5-dicarboxamide] | > 250 | 11.8 |
| CC(C)NC(=O)c1cnn(C)c1C(=O)Nc1ccn2nc(-c3ccccc3)nc2c1 [Example 19, N4-isopropyl-1-methyl-N5-(2-phenyl-[1,2,4]triazolo[1,5-a]pyridin-7-yl)-1H-pyrazole-4,5-dicarboxamide] | > 250 | 5.38 |
| Cn1ncc(C(=O)N2CCS(=O)(=O)CC2)c1C(=O)Nc1ccn2nc(-c3ccccc3)nc2c1 [Example 22, 4-(1,1-Dioxo-thiomorpholine-4-carbonyl)-2-methyl-2H-pyrazole-3-carboxylic acid (2-phenyl-[1,2,4]triazolo[1,5-a]pyridin-7-yl)-amide] | > 250 | 9.01 |
| COC1CN(C(=O)c2cnn(C)c2C(=O)Nc2ccn3nc(-c4ccccc4)nc3c2)C1 [Example 24, 4-(3-Methoxyazetidine-1-carbonyl)-1-methyl-N-(2-phenyl-[1,2,4]triazolo[1,5-a]pyridin-7-yl)-1H-pyrazole-5-carboxamide] | 269 to 270 | 21.5 |
| CCOC(=O)c1cnn(C)c1C(=O)Nc1ccn2nc(-c3ccccc3)nc2c1 [Example 28, ethyl 1-methyl-5-(2-phenyl-[1,2,4]triazolo[1,5-a]pyridin-7-ylcarbamoyl)-1H-pyrazole-4-carboxylate] | 242 to 243 | 7.3 |

Molecules with a lower IC50 (human PDE10A full length), results first:

| melting point [°C] | IC50 (human PDE10A full length) [nM] | SMILES |
| --- | --- | --- |
| 191 to 193 | 2.34 | COCCCNC(=O)c1cnn(C)c1C(=O)Nc1ccn2nc(-c3ccccc3)nc2c1 [Example 16, N4-(3-Methoxypropyl)-1-methyl-N5-(2-phenyl-[1,2,4]triazolo[1,5-a]pyridin-7-yl)-1H-pyrazole-4,5-dicarboxamide] |
| 177 to 179 | 0.25 | CCN(CC)C(=O)c1cnn(C)c1C(=O)Nc1ccn2nc(-c3ccccc3)nc2c1 [Example 18, N4,N4-diethyl-1-methyl-N5-(2-phenyl-[1,2,4]triazolo[1,5-a]pyridin-7-yl)-1H-pyrazole-4,5-dicarboxamide] |
| 110 to 150 | 1.24 | Cc1ccc(CN(C)C(=O)c2cnn(C)c2C(=O)Nc2ccn3nc(-c4ccccc4)nc3c2)cn1 [Example 20, N4,1-dimethyl-N4-((6-methylpyridin-3-yl)methyl)-N5-(2-phenyl-[1,2,4]triazolo[1,5-a]pyridin-7-yl)-1H-pyrazole-4,5-dicarboxamide] |
| > 250 | 4.25 | CNC(=O)c1cnn(C)c1C(=O)Nc1ccn2nc(-c3ccccc3)nc2c1 [Example 23, N4,1-dimethyl-N5-(2-phenyl-[1,2,4]triazolo[1,5-a]pyridin-7-yl)-1H-pyrazole-4,5-dicarboxamide] |
| 259 to 262 | 0.39 | Cn1ncc(C(=O)N2CC(F)C2)c1C(=O)Nc1ccn2nc(-c3ccccc3)nc2c1 [Example 25, 4-(3-Fluoroazetidine-1-carbonyl)-1-methyl-N-(2-phenyl-[1,2,4]triazolo[1,5-a]pyridin-7-yl)-1H-pyrazole-5-carboxamide] |

Reference: patent US8349824B2, “Triazolopyridine compounds” (Hoffmann-La Roche Inc., priority 2010, dated 2013)
